The values that follow come from article PMC11134387, “Cancer-Stem-Cell Phenotype-Guided Discovery of a Microbiota-Inspired Synthetic Compound Targeting NPM1 for Leukemia” (JACS Au, 2024).

For data set [1], the system named is MOLM13 (NPM1 WT). Briefly: Cell viability dose-response in AML cell line (NPM1 WT). The note with it: Homo sapiens, MOLM-13; MOLM13, 48 h. It is filed as cell-based. The source says: One of the most paradigmatic diseases with critical involvement of CSCs is AML. Among the AML stem cell population, CD34+/CD38- are the only ones capable of inducing leukemia in vivo.[27] […] We focused on proteins that disappeared completely after treatment with the compound and whose concentration could be quantified in untreated samples. According to this profile, 340 proteins, including targets related with stemness and cancer, were identified (see Supplementary Excel file). Among them, nucleophosmin 1 (NPM1) especially attracted our attention, as it is one of the most common mutated proteins in AML.[28] To support that the inhibitory capacity of UCM-13369 observed in CSC cells (see Table S1) is mediated by NPM1, the compound was tested on OCI-AML3 and MOLM13 cell lines, as in vitro AML models bearing mutant (NPM1 C+) and wild-type (WT) protein, respectively.
The test compound was diluted in PBS.

For data set [2], the system named is primary HSCs from healthy donors. The data set is described as follows: CD34+ liquid HSC short-term culture, healthy donors. The data set is classed as cell-based. The note with it: Homo sapiens. As to the method: Considering the inhibitory capacity of UCM-13369 on AML cell lines (shown in Figure 3A), the therapeutic potential was assessed in primary CD34+ cells from AML patients. Two ex vivo models were used from AML patients and healthy donors: CD34+ liquid HSC (hematopoietic stem cell) culture as a short-term model and CFU-E (colony-forming unit–erythroid) as a midterm model.
The test compound was diluted in PBS. […]
Primary cells. 1x10^6/mL total mononuclear bone marrow cells (as source of CD34+ HSCs) of healthy donors and AML patients were used. They were cultured using Stem SpanTM supplement with pencillin/streptomycin (500 U/ml), TPO (10 µg/mL), SCF (10 µg/mL), FLT3 (10 µg/mL), IL-6 (10 µg/mL) and IL-3 (10 µg/mL). After 24 h fresh medium was added. After 72 h in maintenance cells were ready to start the assays. All cells wer e maintained at 37 °C in a humidified incubator in an atmosphere of 5% CO2. […]

Data set [3] addresses T1, NPM1 N-end (pentameric, WT) (Homo sapiens, UniProt P06748).
T1 construct: N-end pentameric domain (residues 1- 130); 6xHis (N); made in house; host or cells: E. coli BL21(DE3)
The data set is described as follows: Isothermal titration calorimetry, NPM1 N-end. It is filed as binding. The note with it: ITC, 25 °C. From the text:
To confirm a direct interaction of UCM-13369 with NPM1 and to address which domain of the protein would be responsible for binding the compound, pure protein samples of the pentameric N-end domain of NPM1, along with the C-terminal DNA-binding domains of WT and mutant NPM1 C+, were used in calorimetry assays. […] This is indicative of a lower diversity in the chemical environment of amide protons consistent with the previously reported protein unfolding.[29] […] On the other hand, the pentameric construct of the NPM1 N-end, which lacks the AML-related region, yielded a much lower binding affinity (KD ca. 100 μM range, Figure 3D).
ITC experiments were performed in a Nano ITC Low Volume (TA Instruments) at 25 °C. […]
The purity of the protein samples was checked by SDS–PAGE analysis (Figure S3) and protein quantification was performed using the Bradford protein assay.5 NPM molar concentration was expressed as the pentameric form for NPM1 WT N-end and as a monomer for NPM1 C-end WT and mutant. […]
After extraction with acetonitrile and acidification, samples were desalted and concentrated with C18 tips. Mass spectra were recorded in a Hybrid Quadrupole-Orbitrap™ Mass Spectrometer (Thermo Scientific, Waltham, Massachusetts, USA)
Background: In ITC the heat of successive injections is recorded.

In data set [4] the test system is human renal proximal tubule epithelial cells (hRPT Epi Cells). Briefly: Dose-response viability in renal proximal tubule epithelial cells. The settings on record: dose-response viability assay; listed as UCM-13369. The data set is classed as cell-based. The source says:
Scale bar: 100 μm. (E ) Dose-response curve of UCM-13369 in human renal proximal

Several values for one entry are separate records, joined by “and”; a condition that tells them apart may be missing. Equal values may be shown once. Entries after “also recorded” stand apart in the source; their conditions may differ.

T1 sequence (P06748 1-130): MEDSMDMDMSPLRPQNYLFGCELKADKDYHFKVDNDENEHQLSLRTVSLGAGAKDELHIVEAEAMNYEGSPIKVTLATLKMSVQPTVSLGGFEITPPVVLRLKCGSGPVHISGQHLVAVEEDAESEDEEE

Broadly, the IC50 is the point on the concentration scale where inhibition reaches its midpoint. Lower therefore signals higher potency. The term Kd denotes the equilibrium constant for the complex coming apart. High values mean a looser complex, low ones a tighter complex. Regarding `COc1ccc(C2Cc3[nH]c4ccccc4c3C(CCNCC3CC3)C2N)cc1` (stereo not shown) [4b, 4-{2-[(Cyclopropylmethyl)amino]ethyl}-2-(4-methoxyphenyl)-2,3,4,9-tetrahydro-1H-carbazol-3-amine], the IC50 was determined as 10.9 µM in data set [1] and 6.4 µM in data set [2]. In addition, in data set [3], the Kd was 100 µM and ~100 µM. In data set [4], the “Toxicity in hRPT Epi Cells (in words)” value is recorded as “showed toxicity in kidney cells; also recorded: revealed toxicity”.
